Columns and labels:
[1] = test system: ulcère d'estomac induit par la phénylbutazone; test: Phenylbutazone-induced stomach ulcer in the rat; assay type: in vivo; settings: po, maximal decrease of ulcers, 30 min before phenylbutazone 200 mg/kg p.o., female Wistar rats, scored 2 h later, read-out: Diminution ulcération (%); for inhibition in vivo at 30 mg/kg: dose 30 mg/kg p.o.; for inhibition in vivo at 100 mg/kg: dose 100 mg/kg p.o.
Description: Les composés de l'invention ont été testés quant à leur effet sur l'ulcère d'estomac induit par la phénylbutazone chez le rat.
Le test est effectué sur des rats Wistar femelles pesant 180-210 g à jeun depuis 20 heures, répartis en blocs randomisés.
Les ulcères sont provoqués par l'administration orale de phénylbutazone en solution mole à mole avec de la soude, à la dose de 200 mg/kg.
Les composés à étudier sont administrés par voie orale à raison de 10, 30 ou 100 mg/kg, 30 minutes avant l'ingestion de phénylbutazone, les animaux témoins ne recevant que le placébo.
Deux heures après l'administration de l'agent ulcérigène, les animaux sont sacrifiés par inhalation de chloroforme. Les estomacs sont prélevés et le degré d'ulcération est noté en aveugle de 0 à 3.
(§1) Le tableau suivant donne les toxicités et les diminutions maximales d'ulcères obtenues aux doses indiquées, pour quelques composés de l'invention.

[2] = Acute toxicity, oral LD50 in the mouse; settings: in vivo, read-out: DL50 (mg/kg) p.o.
Description: Leur toxicité aigüe est faible : la dose léthale à 50 % (LD50) déterminée chez la souris est supérieure à 1000 mg/kg par la voie orale pour la plupart d'entre eux.
as §1

O=C(CN1CCC(O)CC1)NCCN=C(c1cc(Cl)ccc1O)c1ccccc1Cl [Composé n° 1, N-[[[(chloro-5 hydroxy-2 phényl)(chloro-2 phényl)méthylène]amino]-2 éthyl] (hydroxy-4 pipéridinyl-1)-2 acétamide]
inhibition in vivo at 30 mg/kg [1]: 100% | LD50 [2]: > 1000 mg/kg

O=C(CN1CCC(O)CC1)NCCN=C(c1ccccc1)c1cc(Cl)ccc1O [Composé n° 2]
inhibition in vivo at 100 mg/kg [1]: 100% | LD50 [2]: > 1000 mg/kg

Cc1ccc(O)c(C(=NCCNC(=O)CN2CCC(O)CC2)c2ccccc2Cl)c1 [Composé n° 7, N-[[[(méthyl-5 hydroxy-2 phényl)(chloro-2 phényl)méthylène]amino]-2 éthyl] (hydroxy-4 pipéridinyl-1)-2 acétamide]
inhibition in vivo at 30 mg/kg [1]: 95% | LD50 [2]: > 1000 mg/kg

Cc1cc(Cl)cc(C(=NCCNC(=O)CN2CCC(O)CC2)c2ccc(Cl)cc2)c1O [compound 3]
inhibition in vivo at 30 mg/kg [1]: 94% | LD50 [2]: > 1000 mg/kg

Cc1ccc(C(=NCCNC(=O)CN2CCC(O)CC2)c2cc(Cl)ccc2O)cc1 [compound 4]
inhibition in vivo at 100 mg/kg [1]: 96% | LD50 [2]: > 1000 mg/kg

O=C(CN1CCC(O)CC1)NCCN=C(c1ccc(Cl)c(Cl)c1)c1cc(Cl)ccc1O [compound 5]
inhibition in vivo at 30 mg/kg [1]: 92% | LD50 [2]: > 1000 mg/kg

O=C(CN1CCC(O)CC1)NCCN=C(c1ccccc1Cl)c1cc(Cl)cc(Cl)c1O [compound 6]
inhibition in vivo at 30 mg/kg [1]: 100% | LD50 [2]: > 1000 mg/kg

O=C(CN1CCC(O)CC1)NCCN=C(c1cc(Cl)ccc1O)c1ccc(Cl)cc1Cl [compound 8]
inhibition in vivo at 100 mg/kg [1]: 98% | LD50 [2]: > 1000 mg/kg

Cc1ccccc1N1CCN(CC(=O)NCCN=C(c2cc(Cl)ccc2O)c2ccccc2Cl)CC1 [compound 19]
inhibition in vivo at 100 mg/kg [1]: 71% | LD50 [2]: > 1000 mg/kg

O=C(CN1CCNCC1)NCCN=C(c1cc(Cl)ccc1O)c1ccccc1Cl [compound 23]
inhibition in vivo at 10 mg/kg ([1]; dose 10 mg/kg p.o.): 87%

O=C(CN1CCC(O)CC1)NCCNC(c1cc(Cl)ccc1O)c1ccccc1Cl (stereo not shown) [compound 26]
inhibition in vivo at 30 mg/kg [1]: 97% | LD50 [2]: > 1000 mg/kg

Cc1ccccc1N1CCN(CC(=O)NCCNC(c2cc(Cl)ccc2O)c2ccccc2Cl)CC1 (stereo not shown) [compound 27]
inhibition in vivo at 30 mg/kg [1]: 98% | LD50 [2]: > 1000 mg/kg

O=C(CN1CCN(c2ccc(Cl)cc2)CC1)NCCNC(c1cc(Cl)ccc1O)c1ccccc1Cl (stereo not shown) [compound 29]
inhibition in vivo at 30 mg/kg [1]: 98% | LD50 [2]: > 1000 mg/kg

From patent publication EP0239461A1, “N-¬¬(hydroxy-2-phenyl)(phenyl)methylene amino-2 ethyl acetamide derivatives, process for their preparation and their therapeutical use” (SYNTHELABO, priority 1986, dated 1987)
